The values that follow are results of earlier work, collected in patent publication US20050267091A1 (priority 2004, published 2005).

Assay in data set [1]: not given
This is another data set of the same source.

The conditions of data set [2]: in vivo.

On to `CC(C)c1nc(N(C)S(C)(=O)=O)nc(-c2ccc(F)cc2)c1/C=C/[C@@H](O)C[C@@H](O)CC(=O)O` [Crestor®, rosuvastatin], for which, where the note is “cited by consumer advocacy group, March 2004”, the “cases of serious side effects” value was 16 cases.
Take `COCc1c(C(C)C)nc(C(C)C)c(/C=C/[C@@H](O)C[C@@H](O)CC(=O)O)c1-c1ccc(F)cc1` [Baycol®, cervastatin]: the “deaths linked to the drug” value (market withdrawal August 2001) was 31 deaths.
For the compound `O=C(O)c1cccnc1` [Niacin], the “patients affected by flushing (redness) of the face and neck” value in data set [1] (most common side effect) is listed as “more than three quarters of patients”. Further, the “patients who discontinue because of adverse effects” value in data set [1] (patients treated with standard niacin) is listed as “more than 40%”. In data set [2], the “increase of blood levels of HDL cholesterol” value is “up to 35%”, the “reduction of total cholesterol” value is recorded as “up to 15%” and the “reduction of triglyceride levels” value is “up to 30%”.
